# Data published in patent US7452869B2, “NIP3 family of proteins” (University of Manitoba, priority 2000, dated 2008).
# “Also recorded” adds a separate entry of the source.
# Tests used:
# ventricular myocytes = experiment: cell viability of ventricular myocytes, calcein acetoxymethyl ester / ethidium homodimer-1; assay type: cell-based
# Protocol: Ventricular myocytes were isolated from 1- to 2-day-old Sprague-Dawley rats (University of Manitoba, Winnipeg, Canada) and submitted to primary culture as reported (Kirshenbaum and Schneider, 1995). Myocytes were subjected to hypoxia for 24 hours in an air-tight chamber continually gassed with 95% N2-5% CO2, as previously reported (Moissac et al., 2000; Long et al., 1997; Tanaka et al., 1994). Adult rat hearts (n=3) were excised from adult rats (250 to 300 g) and subjected to global hypoxia for 1 hour on a modified Langendorff perfusion system with buffer continually gassed with 95% N2-5% CO2, as previously reported (Kirshenbaum, 1993). Heart failure was induced in rats by surgical ligation of the left anterior descending coronary artery, as previously reported (Dixon et al., 1992). Non-failing sham control hearts and those with heart failure were excised from animals 8 weeks after myocardial infarction. Hearts (n=3) were dissected to remove the infarcted scar tissue, and the left ventricular free wall was homogenized and analyzed by Western blot for BNIP3 expression. Animals were handled according to guidelines established by the University of Manitoba and Canadian Council on Animal Care.
# The cDNAs for BNIP3 full-length (BNIP3) and carboxyl terminal transmembrane domain deletion mutant (BNIP3ΔTM) have been described previously (Vande et al., 2000). Recombinant adenoviruses encoding the full-length BNIP3 or transmembrane deletion mutant are designated AdBNIP3 or AdBNIP3ΔTM, respectively, and generated as reported previously (Kirshenbaum et al., 1993).
# Cell viability was determined using the vital dyes 2 μmol/L calcein acetoxymethyl ester (green) to determine the number of living cells and 2 μmol/L ethidium homodimer-1 (red) (Molecular Probes) to identify the number of dead cells (Kirshenbaum and Schneider, 1995). The number of green cells versus red cells was used to determine changes in cell viability (Moissac et al., 2000). Cells were analyzed from at least n=3 independent myocyte isolations counting ≧200 cells for each condition tested. Data are expressed as mean±SE percent reduction from control.
# PT pore = experiment: mitochondrial Dcm (DiOC6), ROS production (HE) and PI staining by flow cytometry in BNIP3-transfected 293T cells; assay type: cell-based
# Protocol: Changes in mitochondrial function were determined by incubating 10 6 293T cells, transiently transfected via the CaP04 method, with either 1 mM JC-1, 40 nM DiOC6, or 2 mM dihydroethidium (HE) (all from Molecular Probes, Inc.) for 30 minutes at 37° C. in Hanks' balanced salt solution (Gibco-BRL). Cells were scored using a FACScalibur flow cytometer (Becton-Dickinson, San Jose, Calif.), and data were analyzed on Celiquest software, version 3.1 (Becton-Dickinson). Controls were performed in the presence or absence of […] mClCCP (Sigma) or an excess of 30% H2 02. For inhibition experiments, cyclosporin A (Sigma) or bongkrekic acid (a gift from J. A. Duine, Delft University, Delft, The Netherlands) was added 2 hours prior to transfection. All cells were harvested 8 hours after transfection and stained with 40 nM DiOC6, 2 mM HE, or 1 mg of propidium iodide (PI) (Sigma) per ml. In all cases, samples were gated to exclude cellular debris.
# [1] = system: mitochondrial permeability transition pore; experiment: mitochondrial permeability transition in ventricular myocytes, calcein-AM with cobalt chloride; assay type: cell-based, rat; details: Bongkrekic acid 50 μmol/L
# Excerpt: To monitor mitochondrial permeability transition (PT), ventricular myocytes were loaded with 5 μmol/L calcein-acetoxymethylester (calcein-AM, Molecular Probes) in the presence of 2 to 5 mmol/L cobalt chloride as previously reported (Gurevich et al., 2001; Petronilli et al., 1998).
# 293T cells = experiment: cytochrome c release by indirect immunofluorescence, 293T; assay type: cell-based
# Protocol: (§1) Mitochondria were isolated from CaP04-transfected 293T cells using 70 strokes (tight pestle) in a 1-ml Dounce homogenizer (Wheaton) in […] of CFS buffer as previously described (Thornberry, N. A., et al., 1998). Mitochondria were resuspended in H buffer (Thornberry, N. A., et al., 1998). Aliquots of […] of protein were analyzed on Laemmli SDS-15% PAGE gels and immunoblotted with anticytochrome c monoclonal antibody. Equal loading was ensured by probing the same blot with monoclonal antiactin. Results were visualized with enhanced chemiluminescence. Cytochrome c release was also determined via indirect immunofluorescence of transfected MCF-7 and 293T cells. Briefly, cells grown on coverslips were costained with Cy3-conjugated mouse anti-cytochrome c monoclonal antibody and an appropriate tag (HA for BNIP3 and FLAG for tBID), which was visualized with FITC-conjugated goat anti-rabbit IgG. Cells were also stained with Hoechst dye to determine apoptotic nuclear morphology. No fewer than 200 cells were scored for each sample. Fluorescence was visualized and captured using a Zeiss axiophot microscope equipped with a cooled charge-coupled device camera.
# BNIP3 [2] = target: T1, BNIP3 (Homo sapiens, UniProt Q12983); experiment: BNIP3 induced cell death by exclusion of propidium iodide, co-transfection of BNIP3 DTM plasmid (FIG. 13); assay type: cell-based; details: 1.0 to 1.0 μg plasmid ratio BNIP3 DTM to BNIP3
# T1 construct: a pcDNA3-BNIP3 plasmid encoding the full length of BNIP3; expressed in transfected cells
# Protocol: Increasing concentrations of BNIP3 DTM plasmid (0.25 to 1.0 μg) were added to a constant amount of BNIP3 (1.0 μg). Cell death was determined by exclusion of propidium iodide. […] The BNIP3 DTM mutant contains amino acids 1-163, which is a deletion of the C-terminus of the protein that contains the transmembrane domain.
# MCF-7 cells = experiment: cytochrome c release by indirect immunofluorescence, MCF-7; assay type: cell-based
# Protocol: as §1
# endogenous BNIP3 = target: T2, endogenous BNIP3 (Rattus norvegicus, UniProt A0ACM8Q210); experiment: alkali extraction of mitochondria of hypoxic ventricular myocytes, BNIP3 western blot; assay type: cell-based
# T2 construct: endogenous in cells; host or cells: neonatal rat ventricular myocytes, with or without adenovirus AdBNIP3ΔTM
# Excerpt: For detection of BNIP3 protein, total cardiac cell lysate was subjected to Western blot analysis using a murine antibody directed toward BNIP3 (Vande et al., 2000). To isolate mitochondria from ventricular myocytes, cells were washed in HIM buffer (200 mmol/L mannitol, 70 mmol/L sucrose, 10 mmol/L HEPES-KOH, 1 mmol/L EGTA, pH 7.5). The crude cell pellet was disrupted and resuspended in HIM buffer containing 2.0% wt/vol bovine serum albumin. The homogenate was ultracentrifuged to obtain the mitochondrial fraction and resuspended in 200 mmol/L sucrose, 10 mmol/L HEPES-KOH, 1 mmol/L ATP, 5 mmol/L sodium succinate, 0.08 mmol/L ADP, and 2 mmol/L K2HPO4. To assess whether BNIP3 integrates into mitochondrial membranes during hypoxia, mitochondria were subjected to alkali extraction using 0.01 mol/L Na2CO3 (pH 11.5); this will dissociate and solubilize proteins that are not membrane integrated (Vande et al, 2000; Goping et al, 1998). Antibodies directed toward the following Bcl-2 family members were obtained from respective suppliers: Bad (Transduction Laboratories Inc), Bax (Santa Cruz Inc), and Bak and Bcl-2 (Pharmingen). Bound proteins were visualized using enhanced chemiluminescence (ECL) reagents (Amersham Pharmacia Inc).
# caspase 3-like proteases = experiment: caspase activation, colorigenic cleavage of Ac-DEVD-pNA by lysates of transfected 293T cells; assay type: biochemical; details: 293T lysates harvested 1 to 36 hours posttransfection, versus untransfected controls
# Protocol: Lysates were collected from 293T cells, transiently transfected via the CaP04 method (Ray, R., et al., 1999), at the indicated times. Aliquots of these lysates were run under Laemmli sodium dodecyl sulfate-polyacrylamide gel electrophoresis (SDS-PAGE) conditions and immunoblotted with mouse monoclonal anti-PARP. Results were visualized with an enhanced chemiluminescence system (Amersham Pharmacia Biotech, Amersham, U. K.). Transfected 293T cells were also assayed for caspase cleavage via colorigenic cleavage of the peptide Ac-DEVD-pNA (Biomol, Plymouth Meeting, Pa.), according to the conditions outlined by Quignon et al. (Scaffidi, C., et al., 1998), using 100 mM peptide. Where appropriate, samples were preincubated with 500 nM Ac-DEVD-fmk for 30 minutes at room temperature. Data were acquired on a Multiskan MCC/340 (Titertek) plate reader at 405 nm.
# [3] = system: primary hippocampal neurons; experiment: primary hippocampal neurons transfected with BNIP3 plasmids, DNA condensation and survival; assay type: cell-based, rat; details: for BNIP3-positive neurons showing DNA condensation / DNA damage: transiently transfected hippocampal neurons
# Protocol: Transfection of cells was performed on day four in culture with LipofectAMINE 2000 […] according to manufacturer's protocol. Cells were transfected with a pcDNA3-BNIP3 plasmid encoding the full length of BNIP3 and a pcDNA3-BNIP3-163 plasmid that encodes a truncated form (the first 163 amino acids) of BNIP3 that lacks the functional transmembrane domain. Cells were used after 9 days in culture for excitotoxicity experiments. Neuronal cell death was assessed using trypan blue exclusion, morphological changes, and Hoescht 33342 staining. Morphological characteristics were examined on a Nikon Eclipse TE200 microscope and fluorescence was examined on a Zeiss Axioskop 2.
# In vitro cell death was estimated using trypan blue exclusion. Cells were incubated in 0.4% trypan blue solution for 30 minutes and then counted on a bright-field microscope. Nonviable cells were distinguished by their dark blue staining. To examine nuclear morphology, nuclear DNA was stained with Hoescht 33342. DNA fragmentation was detected by TUNEL using an in situ cell death detection kit with fluorescein. Statistical analyses were by ANOVA with Tukey's post-test.
# BNIP3 [4] = experiment: western blot of BNIP3 in neonatal cardiac myocytes treated with lactacystin (FIG. 12); assay type: cell-based; details: hypoxic or normoxic 24 hours
# Protocol: Neonatal cardiac myocytes were incubated in hypoxic (+) or normoxic (−) conditions for 24 hours. Cells were treated with lactacystin at the indicated concentrations and lysates harvested for western blotting with anti-BNIP3 antibody. BNIP3 band is indicated with an arrow.
# [5] = drug 2 hours prior to transfection, harvested 8 hours posttransfection, 25 and 50 mM cyclosporin A, 100 mM bongkrekic acid
# T2 sequence (A0ACM8Q210 1-187): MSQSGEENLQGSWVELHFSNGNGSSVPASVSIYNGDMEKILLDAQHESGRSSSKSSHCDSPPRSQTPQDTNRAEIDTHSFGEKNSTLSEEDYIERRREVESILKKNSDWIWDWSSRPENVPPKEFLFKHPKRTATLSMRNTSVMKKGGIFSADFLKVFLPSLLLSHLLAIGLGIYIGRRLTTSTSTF
# T1 sequence (Q12983 whole entry): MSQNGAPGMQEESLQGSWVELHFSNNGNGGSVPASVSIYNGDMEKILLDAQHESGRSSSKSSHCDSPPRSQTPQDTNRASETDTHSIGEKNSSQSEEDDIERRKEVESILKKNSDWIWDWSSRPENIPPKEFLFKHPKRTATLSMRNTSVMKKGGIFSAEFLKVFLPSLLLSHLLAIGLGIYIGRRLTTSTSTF
compound,measurement,setting,value
CO[C@H](C/C=C\C=C\CC/C=C/C[C@H](C)/C=C/C(=C\C(=O)O)CC(=O)O)/C(C)=C\C=C(/C)C(=O)O [bongkrekic acid],BNIP3-induced mitochondrial defects and cell death,ventricular myocytes; Bongkrekic acid 50 μmol/L,prevented
same,"maximum suppression of BNIP3 effects, of that in control cells","PT pore; Dcm suppression, ROS generation and cell death",about 50%
same,cell death (PI staining) in BNIP3 transfectants,"PT pore; drug 2 hours prior to transfection, harvested 8 hours posttransfection, 50 mM cyclosporin A, 100 mM bongkrekic acid",dose-dependent reversal; also recorded: significantly suppressed
same,Dcm suppression (DiOC6) in BNIP3 transfectants,PT pore; [5],dose-dependent reversal; also recorded: significantly inhibited
same,ROS generation (HE fluorescence) in BNIP3 transfectants,PT pore; [5],dose-dependent reversal; also recorded: inhibited
same,BNIP3-induced loss of mitochondrial calcein staining,[1],suppressed
"BNIP3ΔTM: carboxyl terminal transmembrane deletion mutant of BNIP3, deletion of amino acids 164 to 194 (amino acids 1-163)",cytochrome c release (in words),293T cells,only very low levels
same,cell death induced by BNIP3 (propidium iodide exclusion),BNIP3 [2],background levels
same,cytochrome c release (in words),MCF-7 cells,no significant cytochrome c release
same,hypoxia-induced mitochondrial integration of the endogenous BNIP3 protein,endogenous BNIP3,suppressed
same,toxicity to myocytes (viability versus control cells),ventricular myocytes; cells expressing BNIP3ΔTM,not toxic
same,hypoxia-induced cell death of ventricular myocytes,"ventricular myocytes; hypoxia 24 hours, cells expressing BNIP3ΔTM",markedly blunted
same,DiOC6 / HE staining compared to untreated controls,PT pore; 293T cells,not affected
same,increase in Ac-DEVD-pNA substrate cleavage after transfection,caspase 3-like proteases,only marginal increases
same,neurons surviving glutamate toxicity,"[3]; glutamate 100 μM at day 9 in culture, 5 days after transfection",68%
same,BNIP3-positive neurons showing DNA condensation / DNA damage,[3]; listed as BNIP^3-163,17%
same,BNIP3-positive neurons showing DNA condensation / DNA damage,[3]; listed as pcDNA3-BNIP3^3-163,24%
CC(=O)N[C@@H](CSC(=O)[C@]1([C@@H](O)C(C)C)NC(=O)[C@H](C)[C@@H]1O)C(=O)O [Lactacystin],degradation of the BNIP3 protein (western blot),BNIP3 [4],slows the degradation
